These results are taken from patent US9340590B2 (priority 2011, dated 2016).

Holding throughout (test): cell-based
One test deals with hNav1.5 (Homo sapiens, UniProt Q14524). The note with it: IonWorks Quattro, use-dependent block, hNav1.5; read-out: IWQ Use Nav1.5.
The target in the next test is hNav1.7 (Homo sapiens, UniProt Q15858). The class given is cell-based. The note with it: IonWorks Quattro, use-dependent block, hNav1.7; read-out: IWQ Use Nav1.7.
Another test addresses hNav1.3 (Homo sapiens, UniProt Q9NY46). The following applies: IonWorks Quattro, use-dependent block, hNav1.3; read-out: IWQ Use Nav1.3. In general terms: Patch clamp records ionic current or voltage across a cell membrane.

The structures appear in SMILES notation. Positions of bridges follow the written chain, without caps; N, C: chain ends. Non-standard residues stand in square brackets, D forms with d. Residues, ends and D or L forms follow the SMILES beside them. 1Nal = N[C@@H](Cc1cccc2ccccc12)C(=O)O

hNav1.7, sequence (Q15858 whole entry, looked up): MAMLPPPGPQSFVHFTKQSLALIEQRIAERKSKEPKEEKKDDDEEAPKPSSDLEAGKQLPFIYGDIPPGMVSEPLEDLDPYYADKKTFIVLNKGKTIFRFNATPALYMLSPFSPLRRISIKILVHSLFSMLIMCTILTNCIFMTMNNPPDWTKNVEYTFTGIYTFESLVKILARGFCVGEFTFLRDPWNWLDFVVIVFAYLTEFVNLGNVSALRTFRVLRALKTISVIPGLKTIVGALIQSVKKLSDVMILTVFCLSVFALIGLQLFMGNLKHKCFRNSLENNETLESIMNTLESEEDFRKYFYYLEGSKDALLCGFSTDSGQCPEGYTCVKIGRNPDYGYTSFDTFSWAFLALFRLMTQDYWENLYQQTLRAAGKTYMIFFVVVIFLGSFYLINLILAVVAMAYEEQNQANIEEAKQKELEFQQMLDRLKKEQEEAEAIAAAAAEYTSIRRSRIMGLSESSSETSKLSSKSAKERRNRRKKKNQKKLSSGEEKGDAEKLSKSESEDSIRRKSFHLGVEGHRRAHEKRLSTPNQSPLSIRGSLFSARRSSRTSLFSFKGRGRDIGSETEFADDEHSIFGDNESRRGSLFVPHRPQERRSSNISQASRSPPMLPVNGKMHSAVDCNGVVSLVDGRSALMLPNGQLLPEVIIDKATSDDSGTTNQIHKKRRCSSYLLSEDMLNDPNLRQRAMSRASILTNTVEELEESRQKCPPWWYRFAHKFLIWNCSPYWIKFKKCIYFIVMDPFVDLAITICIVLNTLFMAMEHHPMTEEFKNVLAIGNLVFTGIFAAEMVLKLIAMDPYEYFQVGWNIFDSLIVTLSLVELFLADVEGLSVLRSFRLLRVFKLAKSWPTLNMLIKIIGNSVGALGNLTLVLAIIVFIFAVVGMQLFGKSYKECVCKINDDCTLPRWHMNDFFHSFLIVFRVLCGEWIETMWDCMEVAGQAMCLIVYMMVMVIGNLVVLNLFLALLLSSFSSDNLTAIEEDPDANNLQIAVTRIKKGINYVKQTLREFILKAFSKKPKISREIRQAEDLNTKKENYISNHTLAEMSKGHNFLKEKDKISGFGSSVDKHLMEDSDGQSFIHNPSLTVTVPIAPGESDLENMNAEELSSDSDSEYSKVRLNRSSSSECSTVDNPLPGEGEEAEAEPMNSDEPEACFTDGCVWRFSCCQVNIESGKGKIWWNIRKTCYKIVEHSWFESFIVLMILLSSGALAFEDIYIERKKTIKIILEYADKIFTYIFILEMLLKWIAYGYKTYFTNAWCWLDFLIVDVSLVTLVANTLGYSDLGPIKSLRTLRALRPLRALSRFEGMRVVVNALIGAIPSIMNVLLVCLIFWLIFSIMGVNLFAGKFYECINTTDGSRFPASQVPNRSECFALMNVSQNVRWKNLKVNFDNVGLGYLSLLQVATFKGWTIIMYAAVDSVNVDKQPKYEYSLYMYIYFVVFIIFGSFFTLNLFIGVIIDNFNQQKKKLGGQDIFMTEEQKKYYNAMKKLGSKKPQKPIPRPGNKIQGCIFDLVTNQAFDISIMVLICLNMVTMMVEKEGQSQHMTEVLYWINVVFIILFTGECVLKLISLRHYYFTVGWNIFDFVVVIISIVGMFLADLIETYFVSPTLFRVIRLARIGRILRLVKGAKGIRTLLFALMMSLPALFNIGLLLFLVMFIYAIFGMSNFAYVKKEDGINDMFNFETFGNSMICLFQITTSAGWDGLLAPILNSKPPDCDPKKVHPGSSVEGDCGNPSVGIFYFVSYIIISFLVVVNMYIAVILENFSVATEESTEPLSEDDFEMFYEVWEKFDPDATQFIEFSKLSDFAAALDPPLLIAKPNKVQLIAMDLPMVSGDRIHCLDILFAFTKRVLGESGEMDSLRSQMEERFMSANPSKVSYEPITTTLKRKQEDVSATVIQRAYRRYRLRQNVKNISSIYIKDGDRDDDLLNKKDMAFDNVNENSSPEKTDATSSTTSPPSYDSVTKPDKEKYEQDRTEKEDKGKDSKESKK
hNav1.5, sequence (Q14524 whole entry, looked up): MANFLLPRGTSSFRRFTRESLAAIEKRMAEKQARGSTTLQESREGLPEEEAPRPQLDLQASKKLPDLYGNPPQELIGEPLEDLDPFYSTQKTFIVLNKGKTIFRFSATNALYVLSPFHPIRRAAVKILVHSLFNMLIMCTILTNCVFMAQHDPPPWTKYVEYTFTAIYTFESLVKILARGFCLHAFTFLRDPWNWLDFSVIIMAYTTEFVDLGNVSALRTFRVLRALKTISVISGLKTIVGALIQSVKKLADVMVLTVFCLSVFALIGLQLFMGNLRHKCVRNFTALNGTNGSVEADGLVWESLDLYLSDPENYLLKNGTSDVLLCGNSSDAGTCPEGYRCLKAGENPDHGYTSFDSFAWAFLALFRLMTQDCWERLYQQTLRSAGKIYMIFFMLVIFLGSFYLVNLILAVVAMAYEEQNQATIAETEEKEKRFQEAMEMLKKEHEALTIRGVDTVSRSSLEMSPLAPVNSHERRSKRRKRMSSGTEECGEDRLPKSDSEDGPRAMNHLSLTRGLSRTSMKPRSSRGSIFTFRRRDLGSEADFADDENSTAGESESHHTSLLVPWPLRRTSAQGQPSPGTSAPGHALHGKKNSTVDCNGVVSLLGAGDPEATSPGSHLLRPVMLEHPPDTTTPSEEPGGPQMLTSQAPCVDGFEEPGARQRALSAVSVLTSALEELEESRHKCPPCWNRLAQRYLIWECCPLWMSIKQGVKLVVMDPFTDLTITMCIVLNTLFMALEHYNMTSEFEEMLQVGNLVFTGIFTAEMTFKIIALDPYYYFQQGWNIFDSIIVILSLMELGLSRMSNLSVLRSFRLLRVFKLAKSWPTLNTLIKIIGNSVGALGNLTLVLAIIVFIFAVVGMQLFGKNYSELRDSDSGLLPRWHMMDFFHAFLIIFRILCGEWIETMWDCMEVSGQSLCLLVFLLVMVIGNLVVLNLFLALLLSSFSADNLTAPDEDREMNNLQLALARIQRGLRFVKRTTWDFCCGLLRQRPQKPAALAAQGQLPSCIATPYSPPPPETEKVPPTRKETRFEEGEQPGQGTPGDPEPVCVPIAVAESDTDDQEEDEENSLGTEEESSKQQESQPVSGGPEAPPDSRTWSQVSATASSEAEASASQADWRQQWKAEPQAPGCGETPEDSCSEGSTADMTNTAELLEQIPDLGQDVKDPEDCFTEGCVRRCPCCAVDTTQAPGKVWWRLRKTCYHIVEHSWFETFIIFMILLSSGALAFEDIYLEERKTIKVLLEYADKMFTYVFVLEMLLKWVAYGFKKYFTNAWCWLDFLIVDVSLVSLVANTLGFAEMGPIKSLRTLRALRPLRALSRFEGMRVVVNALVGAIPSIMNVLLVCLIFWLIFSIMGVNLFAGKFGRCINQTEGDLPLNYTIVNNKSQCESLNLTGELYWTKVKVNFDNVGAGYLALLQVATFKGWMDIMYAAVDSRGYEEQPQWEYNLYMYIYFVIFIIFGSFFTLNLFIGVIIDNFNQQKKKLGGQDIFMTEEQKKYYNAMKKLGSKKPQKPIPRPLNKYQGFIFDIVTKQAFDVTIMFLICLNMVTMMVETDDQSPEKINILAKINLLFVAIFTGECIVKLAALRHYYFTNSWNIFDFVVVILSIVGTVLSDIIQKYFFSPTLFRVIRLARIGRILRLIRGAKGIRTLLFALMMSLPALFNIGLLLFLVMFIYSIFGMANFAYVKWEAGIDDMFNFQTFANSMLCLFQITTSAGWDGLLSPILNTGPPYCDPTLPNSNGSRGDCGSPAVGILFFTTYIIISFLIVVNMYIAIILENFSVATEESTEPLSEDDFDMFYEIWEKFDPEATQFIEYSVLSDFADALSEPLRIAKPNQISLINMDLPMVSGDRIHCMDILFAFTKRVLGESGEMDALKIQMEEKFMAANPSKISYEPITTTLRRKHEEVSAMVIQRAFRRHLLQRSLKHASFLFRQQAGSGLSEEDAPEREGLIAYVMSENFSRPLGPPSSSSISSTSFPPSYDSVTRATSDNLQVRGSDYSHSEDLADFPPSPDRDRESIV

For `CC[C@H](C)[C@@H]1NC(=O)[C@@H]2CSSC[C@@H]3NC(=O)[C@H](C(C)C)NC(=O)[C@H](CC(C)C)NC(=O)[C@H](CC(N)=O)NC(=O)[C@@H]4CCCN4C(=O)[C@H](CCCNC(=N)N)NC(=O)[C@H](CSSC[C@H](NC(=O)[C@@H](N)CC(=O)O)C(=O)N[C@@H](CC(C)C)C(=O)NCC(=O)N[C@@H](Cc4ccccc4)C(=O)N[C@@H](CCSC)C(=O)N[C@@H](CCCNC(=N)N)C(=O)N[C@@H](CCCCN)C(=O)N2)NC(=O)[C@H](CSSC[C@@H](C(=O)N[C@@H](CCCCN)C(=O)N[C@@H](Cc2c[nH]c4ccccc24)C(=O)N[C@@H](Cc2c[nH]c4ccccc24)C(=O)N[C@@H](Cc2ccccc2)C(N)=O)NC(=O)[C@H](Cc2c[nH]c4ccccc24)NC(=O)[C@H](CCCCN)NC(=O)[C@H](Cc2c[nH]cn2)NC(=O)[C@H]([C@@H](C)O)NC(=O)[C@H](CCCNC(=N)N)NC(=O)[C@H](CO)NC3=O)NC(=O)[C@H](CCCCN)NC(=O)[C@H](CC(=O)O)NC(=O)[C@H](CC(N)=O)NC(=O)[C@H](CC(=O)O)NC(=O)[C@@H]2CCCN2C1=O` [compound 450] (H-DCLGFMRKCIPDNDKCCRPNLVCSRTHKWCKWWF-NH2; disulfide 2-17, 9-23, 16-30), the figures for the IC50 at hNav1.5, on hNav1.7 and at hNav1.3 were 11.5 µM, 50 nM and 30 nM, respectively.

Regarding `CSCC[C@@H]1NC(=O)[C@H](Cc2ccccc2)NC(=O)CNC(=O)[C@H](CC(C)C)NC(=O)[C@@H](NC(=O)[C@@H](N)CC(=O)O)CSSC[C@@H]2NC(=O)[C@@H]3CSSC[C@@H](C(=O)N[C@@H](CCCCN)C(=O)N[C@@H](Cc4cccc5ccccc45)C(=O)N[C@H](C(=O)N[C@@H](Cc4ccccc4)C(N)=O)C(C)C)NC(=O)[C@H](Cc4c[nH]c5ccccc45)NC(=O)[C@H](CCCCN)NC(=O)[C@H](Cc4c[nH]cn4)NC(=O)[C@H]([C@@H](C)O)NC(=O)[C@H](CCCNC(=N)N)NC(=O)[C@H](CO)NC(=O)[C@H](CSSC[C@H](NC(=O)[C@H](CCCCN)NC(=O)[C@H](CCCNC(=N)N)NC1=O)C(=O)N[C@@H](Cc1cccc4ccccc14)C(=O)N1CCC[C@H]1C(=O)N[C@@H](CC(=O)O)C(=O)N[C@@H](CC(N)=O)C(=O)N[C@@H](CC(=O)O)C(=O)N[C@@H](CCCCN)C(=O)N3)NC(=O)[C@H](C(C)C)NC(=O)[C@H](CC(C)C)NC(=O)[C@H](CC(N)=O)NC(=O)[C@@H]1CCCN1C(=O)[C@H](CCCNC(=N)N)NC2=O` [compound 452], the IC50 is above 5 µM on hNav1.5, 5 nM at hNav1.7 and 3 nM at hNav1.3.

For `CC[C@H](C)[C@@H]1NC(=O)[C@@H]2CSSC[C@@H]3NC(=O)[C@H](C(C)C)NC(=O)[C@H](CC(C)C)NC(=O)[C@H](CC(N)=O)NC(=O)[C@@H]4CCCN4C(=O)[C@H](CCCNC(=N)N)NC(=O)[C@H](CSSC[C@H](NC(=O)[C@@H](N)CC(=O)O)C(=O)N[C@@H](CC(C)C)C(=O)NCC(=O)N[C@@H](Cc4ccccc4)C(=O)N[C@@H](CCSC)C(=O)N[C@@H](CCCNC(=N)N)C(=O)N[C@@H](CCCCN)C(=O)N2)NC(=O)[C@H](CSSC[C@@H](C(=O)N[C@@H](CCCCN)C(=O)N[C@@H](Cc2cccc4ccccc24)C(=O)N[C@H](C(=O)N[C@@H](Cc2ccccc2)C(N)=O)C(C)C)NC(=O)[C@H](Cc2c[nH]c4ccccc24)NC(=O)[C@H](CCCCN)NC(=O)[C@H](Cc2c[nH]cn2)NC(=O)[C@H](CC(C)C)NC(=O)[C@H](CCCNC(=N)N)NC(=O)[C@H](CO)NC3=O)NC(=O)[C@H](CCCCN)NC(=O)[C@H](CC(=O)O)NC(=O)[C@H](CC(N)=O)NC(=O)[C@H](CC(=O)O)NC(=O)[C@@H]2CCCN2C1=O` [compound 453] (H-DCLGFMRKCIPDNDKCCRPNLVCSRLHKWCK[1Nal]VF-NH2; disulfide 2-17, 9-23, 16-30), the results for the IC50 at hNav1.5, at hNav1.7 and on hNav1.3 were above 5 µM, 10 nM and 10 nM, respectively.

As to `CC[C@H](C)[C@@H]1NC(=O)[C@@H]2CSSC[C@@H]3NC(=O)[C@H](C(C)C)NC(=O)[C@H](CC(C)C)NC(=O)[C@H](CC(N)=O)NC(=O)[C@@H]4CCCN4C(=O)[C@H](CCCNC(=N)N)NC(=O)[C@H](CSSC[C@H](NC(=O)[C@@H](N)CC(=O)O)C(=O)N[C@@H](CC(C)C)C(=O)NCC(=O)N[C@@H](Cc4ccccc4)C(=O)N[C@@H](CCSC)C(=O)N[C@@H](CCCNC(=N)N)C(=O)N[C@@H](CCCCN)C(=O)N2)NC(=O)[C@H](CSSC[C@@H](C(=O)N[C@@H](CCCCN)C(=O)N[C@@H](Cc2c[nH]c4ccccc24)C(=O)N[C@@H](Cc2cccc4ccccc24)C(=O)N[C@@H](Cc2ccccc2)C(N)=O)NC(=O)[C@H](Cc2c[nH]c4ccccc24)NC(=O)[C@H](CCCCN)NC(=O)[C@H](Cc2c[nH]cn2)NC(=O)[C@H]([C@@H](C)O)NC(=O)[C@H](CCCNC(=N)N)NC(=O)[C@H](CO)NC3=O)NC(=O)[C@H](CCCCN)NC(=O)[C@H](CC(=O)O)NC(=O)[C@H](CC(N)=O)NC(=O)[C@H](CC(=O)O)NC(=O)[C@@H]2CCCN2C1=O` [compound 455] (H-DCLGFMRKCIPDNDKCCRPNLVCSRTHKWCKW[1Nal]F-NH2; disulfide 2-17, 9-23, 16-30), the IC50 at hNav1.5 was above 5 µM; at hNav1.7, 20 nM; on hNav1.3 it was 40 nM.

As for `CC[C@H](C)[C@@H]1NC(=O)[C@@H]2CSSC[C@@H]3NC(=O)[C@H](C(C)C)NC(=O)[C@H](CC(C)C)NC(=O)[C@H](CC(N)=O)NC(=O)[C@@H]4CCCN4C(=O)[C@H](CCCNC(=N)N)NC(=O)[C@H](CSSC[C@H](NC(=O)[C@@H](N)CC(=O)O)C(=O)N[C@@H](CC(C)C)C(=O)NCC(=O)N[C@@H](Cc4ccccc4)C(=O)N[C@@H](Cc4c[nH]c5ccccc45)C(=O)N[C@@H](CCCNC(=N)N)C(=O)N[C@@H](CCCCN)C(=O)N2)NC(=O)[C@H](CSSC[C@@H](C(=O)N[C@@H](CCCCN)C(=O)N[C@@H](Cc2ccc(O)cc2)C(=O)N[C@H](C(=O)N[C@@H](Cc2ccccc2)C(N)=O)C(C)C)NC(=O)[C@H](Cc2c[nH]c4ccccc24)NC(=O)[C@H](CCCCN)NC(=O)[C@H](Cc2c[nH]cn2)NC(=O)[C@H](CC(C)C)NC(=O)[C@H](CCCNC(=N)N)NC(=O)[C@H](CO)NC3=O)NC(=O)[C@H](CCCCN)NC(=O)[C@H](CC(=O)O)NC(=O)[C@H](CC(N)=O)NC(=O)[C@H](CC(=O)O)NC(=O)[C@@H]2CCCN2C1=O` [compound 456] (H-DCLGFWRKCIPDNDKCCRPNLVCSRLHKWCKYVF-NH2; disulfide 2-17, 9-23, 16-30), the results for the IC50 on hNav1.5, on hNav1.7 and on hNav1.3 were above 5 µM, 30 nM and 10 nM, respectively.

Consider `CC[C@H](C)[C@@H]1NC(=O)[C@@H]2CSSC[C@@H]3NC(=O)[C@H](C(C)C)NC(=O)[C@H](CC(C)C)NC(=O)[C@H](CC(N)=O)NC(=O)[C@@H]4CCCN4C(=O)[C@H](CCCNC(=N)N)NC(=O)[C@H](CSSC[C@H](NC(=O)[C@@H](N)CC(=O)O)C(=O)N[C@@H](CC(C)C)C(=O)NCC(=O)N[C@@H](Cc4ccccc4)C(=O)N[C@@H](CCSC)C(=O)N[C@@H](CCCNC(=N)N)C(=O)N[C@@H](CCCCN)C(=O)N2)NC(=O)[C@H](CSSC[C@@H](C(=O)N[C@@H](CCCCN)C(=O)N[C@@H](Cc2cccc4ccccc24)C(=O)N[C@@H](Cc2c[nH]c4ccccc24)C(=O)N[C@@H](Cc2ccccc2)C(N)=O)NC(=O)[C@H](Cc2c[nH]c4ccccc24)NC(=O)[C@H](CCCCN)NC(=O)[C@H](Cc2c[nH]cn2)NC(=O)[C@H]([C@@H](C)O)NC(=O)[C@H](CCCNC(=N)N)NC(=O)[C@H](CO)NC3=O)NC(=O)[C@H](CCCCN)NC(=O)[C@H](CC(=O)O)NC(=O)[C@H](CC(N)=O)NC(=O)[C@H](CC(=O)O)NC(=O)[C@@H]2CCCN2C1=O` [compound 460] (H-DCLGFMRKCIPDNDKCCRPNLVCSRTHKWCK[1Nal]WF-NH2; disulfide 2-17, 9-23, 16-30), for which the IC50 on hNav1.5 was above 5 µM; on hNav1.7, 80 nM; at hNav1.3 it was 30 nM.

In the case of `CC[C@H](C)[C@@H]1NC(=O)[C@@H]2CSSC[C@@H]3NC(=O)[C@H](C(C)C)NC(=O)[C@H](CC(C)C)NC(=O)[C@H](CC(N)=O)NC(=O)[C@@H]4CCCN4C(=O)[C@H](CCCNC(=N)N)NC(=O)[C@H](CSSC[C@H](NC(=O)[C@@H](N)CC(=O)O)C(=O)N[C@@H](CC(C)C)C(=O)NCC(=O)N[C@@H](Cc4ccccc4)C(=O)N[C@@H](Cc4c[nH]c5ccccc45)C(=O)N[C@@H](CCCNC(=N)N)C(=O)N[C@@H](CCCCN)C(=O)N2)NC(=O)[C@H](CSSC[C@@H](C(=O)N[C@@H](CCCCN)C(=O)N[C@@H](Cc2ccc(O)cc2)C(=O)N[C@@H](Cc2cccc4ccccc24)C(=O)N[C@@H](Cc2ccccc2)C(N)=O)NC(=O)[C@H](Cc2c[nH]c4ccccc24)NC(=O)[C@H](CCCCN)NC(=O)[C@H](Cc2c[nH]cn2)NC(=O)[C@H]([C@@H](C)O)NC(=O)[C@H](CCCNC(=N)N)NC(=O)[C@H](CO)NC3=O)NC(=O)[C@H](CCCCN)NC(=O)[C@H](CC(=O)O)NC(=O)[C@H](CC(N)=O)NC(=O)[C@H](CC(=O)O)NC(=O)[C@@H]2CCCN2C1=O` [compound 461] (H-DCLGFWRKCIPDNDKCCRPNLVCSRTHKWCKY[1Nal]F-NH2; disulfide 2-17, 9-23, 16-30), the IC50 at hNav1.5 is above 5 µM; at hNav1.7 it was 100 nM; at hNav1.3, 50 nM.

Take `CSCC[C@@H]1NC(=O)[C@H](Cc2ccccc2)NC(=O)CNC(=O)[C@H](CC(C)C)NC(=O)[C@@H](NC(=O)[C@@H](N)CC(=O)O)CSSC[C@@H]2NC(=O)[C@@H]3CSSC[C@@H](C(=O)N[C@@H](CCCCN)C(=O)N[C@@H](Cc4ccc(O)cc4)C(=O)N[C@@H](Cc4cccc5ccccc45)C(=O)N[C@@H](Cc4ccccc4)C(N)=O)NC(=O)[C@H](Cc4c[nH]c5ccccc45)NC(=O)[C@H](CCCCN)NC(=O)[C@H](Cc4c[nH]cn4)NC(=O)[C@H]([C@@H](C)O)NC(=O)[C@H](CCCNC(=N)N)NC(=O)[C@H](CO)NC(=O)[C@H](CSSC[C@H](NC(=O)[C@H](CCCCN)NC(=O)[C@H](CCCNC(=N)N)NC1=O)C(=O)N[C@@H](Cc1cccc4ccccc14)C(=O)N1CCC[C@H]1C(=O)N[C@@H](CC(=O)O)C(=O)N[C@@H](CC(N)=O)C(=O)N[C@@H](CC(=O)O)C(=O)N[C@@H](CCCCN)C(=O)N3)NC(=O)[C@H](C(C)C)NC(=O)[C@H](CC(C)C)NC(=O)[C@H](CC(N)=O)NC(=O)[C@@H]1CCCN1C(=O)[C@H](CCCNC(=N)N)NC2=O` [compound 462]: the IC50 on hNav1.5 was above 5 µM; on hNav1.7, 110 nM; at hNav1.3, 70 nM.
